Assay results taken from paper PMC5799307, “Creation of a long-acting nanoformulated dolutegravir” (Nature Communications, 2018).

What was measured:
[1] = Blood and tissue DTG levels and animal weights in hu-PBL-NSG mice; format: in vivo; conditions: NOD/scid-IL-2Rγc^null (NSG), mouse, intramuscular, 45 mg/kg DTG-eq.; kidney, day 39; read-out: tissue DTG level
Procedure: NOD/scid-IL-2Rγc^null (NSG) mice (6–7 weeks of age; Jackson Labs, Bar Harbor, ME) were administered a single IM injection in a volume of 40 µL/25 g mouse of NDTG or NMDTG at a concentration of 45 mg/kg DTG-eq. on day 0 for measures of relative viral restriction. Mice were then reconstituted with 25 × 10^6 human peripheral blood lymphocytes (hu-PBL) per mouse 4 or 19 days post drug treatment by IP injection. Next, mice were challenged 10 days post hu-PBL reconstitution with HIV-1ADA at 14 or 29 days post drug treatment by IP injection at a TCID50 of 2 × 10^4 per mouse. […] Plasma was saved for viral load (HIV-1 RNA) quantitation using the Roche Amplicor and Taqman-48 system [HIV-1 kit V2.0 according to the manufacturer’s instructions (Indianapolis, IN)]. Blood and tissue drug concentrations were determined by UPLC-MS/MS as described above. […] The number of HIV-1p24+ and HLA-DP/DQ/DR+ cells per section were counted and expressed as percentage of HIV-1p24+ cells/HLA-DP/DQ/DR+ cells per section. […] Plasma was used for quantitative viral load (measurements of HIV-1 RNA) using the Roche Amplicor and Taqman-48 system. Blood and tissue drug concentrations were determined by UPLC-MS/MS as described above. […]

[2] = Pharmacokinetics and biodistribution in Balb/cJ mice, single IM dose; conditions: male, mouse, in vivo
Procedure: Male Balb/cJ mice (6–8 weeks of age; Jackson Labs, Bar Harbor, ME) were injected with NDTG or NMDTG (45 mg/kg DTG-eq.) intramuscularly (IM; caudal thigh muscle) in a volume of 40 µL/25 g mouse. For injections, NDTG and NMDTG were diluted to 28.1 mg DTG/mL in endotoxin-free water and 42.3 mg MDTG/mL in HEPES buffer, respectively. Twenty-five microliters of whole blood was collected by cheek puncture into 1 mL ACN at 1, 3, 7, 14, 21, 28, 35, 42, 49, and 56 days after drug administration. Animals were humanely euthanized using isoflurane followed by cervical dislocation at 28 and 56 days, and tissues (spleen, liver, lymph nodes, lungs, kidneys, gut-associated lymphoid tissue (GALT), and brain) were collected for drug quantitation. Drug concentration in whole blood and tissues was determined by UPLC-MS/MS using a Waters Acquity UPLC- Xevo TQ-S micro mass spectrometry system (Milford, MA). For blood analysis, 10 µL of internal standard (IS) solution was added to each sample. […] MDTG was quantified using a 7-min gradient of the same mobile phases at a flow rate of 0.35 mL/min. […] DTG and MDTG were detected at cone voltages of 10 V and 16 V and collision energies of 25 V and 44 V, respectively. […] Spectra were analyzed and quantified by MassLynx software version 4.1. Quantitation was based upon drug peak area to internal standard peak area ratios.

SMILES: C[C@@H]1CCO[C@H]2Cn3cc(C(=O)NCc4ccc(F)cc4F)c(=O)c(O)c3C(=O)N12 [DTG, dolutegravir]
- concentration at 39 days [1]: 4.1 ng/g

SMILES: CCCCCCCCCCCCCC(=O)Oc1c2n(cc(C(=O)NCc3ccc(F)cc3F)c1=O)C[C@@H]1OCC[C@@H](C)N1C2=O [MDTG]
- time prodrug was detectable in blood [2]: ≤ 3 days
